# Experimental data taken from US4656166A, “Antibiotic compounds derived from cephalosporins, process for their production and pharmaceutical compositions” (Sanofi, priority 1983, dated 1987).
# Experiments:
# Assay type in all cases: cell-based
# [1] = system: Enterobacter RO 154; test: MIC, in vitro dilution method, Enterobacter RO 154 (Table III); details: RO154; Enterobacter RO 154; dilution method; read-out: MIC
# Text: (§1) The products of the invention have been studied as regards their pharmacological properties and, more especially, bacteriostatic action. This has been determined in vitro by the dilution method, and the study was on Gram negative strains.
# (§2) Results, expressed in minimum inhibiting concentrations (MIC-- μg/ml), are collected in the following table (Table III).
# [2] = system: Pseudomonas RL 112; test: MIC, in vitro dilution method, Pseudomonas RL 112 (Table III); details: RL112
# Text: as §1, §2
# [3] = system: Citrobacter RL 49; test: MIC, in vitro dilution method, Citrobacter RL 49 (Table III); details: RL49; Citrobacter RL 49; dilution method; read-out: MIC
# Text: as §1, §2
# [4] = system: Klebsiella RO 30; test: MIC, in vitro dilution method, Klebsiella RO 30 (Table III); details: RO30; Klebsiella RO 30; dilution method; read-out: MIC
# Text: as §1, §2
# [5] = system: Escherichia coli SOL 90; test: MIC, in vitro dilution method, Escherichia coli SOL 90 (Table III); details: SOL90; Escherichia coli SOL 90; dilution method; read-out: MIC
# Text: as §1, §2
# [6] = system: Serratia RL 72; test: MIC, in vitro dilution method, Serratia RL 72 (Table III); details: RL72
# Text: as §1, §2
# [7] = system: Proteus vulgaris RL 99 bis; test: MIC, in vitro dilution method, Proteus vulgaris RL 99 bis (Table III); details: RL99BIS; Proteus vulgaris RL 99 bis; dilution method; read-out: MIC
# Text: as §1, §2
Structure (SMILES),MIC [1] [µg/mL],MIC [2] [µg/mL],MIC [3] [µg/mL],MIC [4] [µg/mL],MIC [5] [µg/mL],MIC [6] [µg/mL],MIC [7] [µg/mL]
CC(O/N=C(\C(=O)NC1C(=O)N2C(C(=O)O)=C(COC(=O)CCCCN)C[S+]([O-])C12)c1csc(N)n1)C(=O)O (stereo not drawn) [42 214],≤ 0.12,16,≤ 0.12,≤ 0.12,≤ 0.12,0.5,≤ 0.12
CC(C)(ON=C(C(=O)NC1C(=O)N2C(C(=O)O)=C(COC(=O)C3CCN(C(=O)CCCN)CC3)C[S+]([O-])C12)c1csc(N)n1)C(=O)O (stereo not drawn) [42 783],2,8,,0.125,0.25,,
Cc1c(CN)cccc1C(=O)SCC1=C(C(=O)O)N2C(=O)C(NC(=O)C(=NOC3(C(=O)O)CCC3)c3csc(N)n3)C2[S+]([O-])C1 (stereo not drawn) [compound 42536],0.5,8,0.25,0.25,0.5,0.5,≤ 0.125
CC(C)(ON=C(C(=O)NC1C(=O)N2C(C(=O)O)=C(COC(=O)c3ccc(NC(=O)CCCCN)cc3)C[S+]([O-])C12)c1csc(N)n1)C(=O)O (stereo not drawn) [42 689],4,4,,0.25,0.125,,
Cc1cc(C(=O)OCC2=C(C(=O)O)N3C(=O)C(NC(=O)/C(=N\OC4(C(=O)O)CCC4)c4csc(N)n4)C3[S+]([O-])C2)ccc1CN (stereo not drawn) [42 463],≤ 0.125,4,≤ 0.125,≤ 0.125,≤ 0.125,0.5,≤ 0.125
CC(N)C(=O)N1CCC(C(=O)OCC2=C(C(=O)O)N3C(=O)C(NC(=O)C(=NOC(C)(C)C(=O)O)c4csc(N)n4)C3[S+]([O-])C2)CC1 (stereo not drawn) [42 781],2,4,,0.125,0.25,,
CC(N)C(=O)Nc1ccc(C(=O)OCC2=C(C(=O)O)N3C(=O)C(NC(=O)C(=NOC4(C(=O)O)CCC4)c4csc(N)n4)C3[S+]([O-])C2)cc1 (stereo not drawn) [42 818],4,4,,0.125,0.125,,
Cc1c(NC(=O)CCN)cccc1C(=O)OCC1=C(C(=O)O)N2C(=O)C(NC(=O)C(=NOC(C)(C)C(=O)O)c3csc(N)n3)C2[S+]([O-])C1 (stereo not drawn) [42 586],16,4,,0.25,0.25,,
Cc1cc(CN)ccc1C(=O)OCC1=C(C(=O)O)N2C(=O)C(NC(=O)C(=NOC(C)(C)C(=O)O)c3csc(N)n3)C2[S+]([O-])C1 (stereo not drawn) [42 848],2,4,,0.125,0.125,,
Cc1nc(NC(=O)CN)sc1C(=O)OCC1=C(C(=O)O)N2C(=O)C(NC(=O)C(=NOC(C)(C)C(=O)O)c3csc(N)n3)C2[S+]([O-])C1 (stereo not drawn) [42 690],8,4,,0.5,0.5,,
CN(C(=O)CN)c1ccc(C(=O)OCC2=C(C(=O)O)N3C(=O)C(NC(=O)C(=NOC(C)(C)C(=O)O)c4csc(N)n4)C3[S+]([O-])C2)cc1 (stereo not drawn) [42 657],4,8,,0.25,0.25,,
CNCC(=O)Nc1ccc(C(=O)OCC2=C(C(=O)O)N3C(=O)C(NC(=O)C(=NOC(C)(C)C(=O)O)c4csc(N)n4)C3[S+]([O-])C2)cc1 (stereo not drawn) [42 584],2,4,,0.25,0.25,,
Cc1c(NC(=O)CN)cccc1C(=O)OCC1=C(C(=O)O)N2C(=O)C(NC(=O)C(=NOC(C)(C)C(=O)O)c3csc(N)n3)C2[S+]([O-])C1 (stereo not drawn) [42 585],8,4,,0.25,0.25,,
CC(N)C(=O)Nc1ccc(C(=O)OCC2=C(C(=O)O)N3C(=O)C(NC(=O)C(=NOC(C)(C)C(=O)O)c4csc(N)n4)C3[S+]([O-])C2)cc1 (stereo not drawn) [42 817],4,4,,0.25,0.125,,
CNCc1ccc(C(=O)OCC2=C(C(=O)O)N3C(=O)C(NC(=O)C(=NOC(C)(C)C(=O)O)c4csc(N)n4)C3[S+]([O-])C2)cc1F (stereo not drawn) [42 582],2,8,,0.25,0.25,,
Cc1cc(CN)ccc1C(=O)SCC1=C(C(=O)O)N2C(=O)C(NC(=O)C(=NOC(C)(C)C(=O)O)c3csc(N)n3)C2[S+]([O-])C1 (stereo not drawn) [compound 42850],2,8,,0.25,0.5,,
CC(C)(ON=C(C(=O)NC1C(=O)N2C(C(=O)O)=C(COC(=O)c3ccc(CN)c(Br)c3)C[S+]([O-])C12)c1csc(N)n1)C(=O)O (stereo not drawn) [42 676],2,8,,0.25,0.25,,
CC(C)(ON=C(C(=O)NC1C(=O)N2C(C(=O)O)=C(COC(=O)c3ccc(NC(=O)C4CCNCC4)cc3)C[S+]([O-])C12)c1csc(N)n1)C(=O)O (stereo not drawn) [42 815],8,8,,0.25,0.125,,

Structure (SMILES),MIC [1] [µg/mL],MIC [2] [µg/mL],MIC [3] [µg/mL],MIC [4] [µg/mL],MIC [5] [µg/mL],MIC [6] [µg/mL],MIC [7] [µg/mL]
CC(C)(ON=C(C(=O)NC1C(=O)N2C(C(=O)O)=C(COC(=O)c3ccc(CN)c(F)c3)C[S+]([O-])C12)c1csc(N)n1)C(=O)O (stereo not drawn) [42 581],2,4,,0.125,0.125,,
Cc1cc(CN)ccc1C(=O)SCC1=C(C(=O)O)N2C(=O)C(NC(=O)C(=NOC3(C(=O)O)CCC3)c3csc(N)n3)C2[S+]([O-])C1 (stereo not drawn) [compound 42851],1,8,,0.25,0.5,,
NCC(=O)Nc1cccc(C(=O)SCC2=C(C(=O)O)N3C(=O)C(NC(=O)C(=NOC4(C(=O)O)CCC4)c4csc(N)n4)C3[S+]([O-])C2)c1 (stereo not drawn) [compound 42686],2,8,,1,2,,
CC(C)(ON=C(C(=O)NC1C(=O)N2C(C(=O)O)=C(COC(=O)c3ccc(NC(=O)CCCN)cc3)C[S+]([O-])C12)c1csc(N)n1)C(=O)O (stereo not drawn) [42 688],4,4,,0.25,0.125,,
NCC(=O)Nc1ccc(C(=O)SCC2=C(C(=O)O)N3C(=O)C(NC(=O)C(=NOC4(C(=O)O)CCC4)c4csc(N)n4)C3[S+]([O-])C2)cc1 (stereo not drawn) [compound 42665],2,8,,0.5,0.5,,
CC(C)(ON=C(C(=O)NC1C(=O)N2C(C(=O)O)=C(CSC(=O)c3cccc(NC(=O)CN)c3)C[S+]([O-])C12)c1csc(N)n1)C(=O)O (stereo not drawn) [compound 42685],2,8,,1,2,,
Cc1cc(NC(=O)CN)c(C)c(C(=O)OCC2=C(C(=O)O)N3C(=O)C(NC(=O)C(=NOC(C)(C)C(=O)O)c4csc(N)n4)C3[S+]([O-])C2)c1 (stereo not drawn) [42 814],8,8,,0.25,0.5,,
NCCC(=O)Nc1ccc(C(=O)OCC2=C(C(=O)O)N3C(=O)C(NC(=O)C(=NOC4(C(=O)O)CCC4)c4csc(N)n4)C3[S+]([O-])C2)cc1 (stereo not drawn) [42 658],8,4,,0.125,0.125,,
Cc1cc(C(=O)SCC2=C(C(=O)O)N3C(=O)C(NC(=O)C(=NOC(C)(C)C(=O)O)c4csc(N)n4)C3[S+]([O-])C2)ccc1CN (stereo not drawn) [compound 42661],1,8,,0.25,0.5,,
CC(C)(ON=C(C(=O)NC1C(=O)N2C(C(=O)O)=C(COC(=O)C3CCN(C(=O)CCN)CC3)C[S+]([O-])C12)c1csc(N)n1)C(=O)O (stereo not drawn) [42 782],2,4,,0.125,0.25,,
CC(C)(ON=C(C(=O)NC1C(=O)N2C(C(=O)O)=C(COC(=O)c3csc(NC(=O)CCN)n3)C[S+]([O-])C12)c1csc(N)n1)C(=O)O (stereo not drawn) [42 587],8,4,,0.25,0.25,,
CC(C)(ON=C(C(=O)NC1C(=O)N2C(C(=O)O)=C(COC(=O)C3CCC(N)CC3)C[S+]([O-])C12)c1csc(N)n1)C(=O)O (stereo not drawn) [42 811],2,4,,0.125,0.125,,
NCC(=O)N1CCC(C(=O)SCC2=C(C(=O)O)N3C(=O)C(NC(=O)C(=NOC4(C(=O)O)CCC4)c4csc(N)n4)C3[S+]([O-])C2)CC1 (stereo not drawn) [compound 42674],2,8,,0.5,1,,
CC(C)(CN)C(=O)SCC1=C(C(=O)O)N2C(=O)C(NC(=O)C(=NOC(C)(C)C(=O)O)c3csc(N)n3)C2[S+]([O-])C1 (stereo not drawn) [compound 42663],4,8,,1,4,,
CC(N)C(=O)Nc1nc(C(=O)OCC2=C(C(=O)O)N3C(=O)C(NC(=O)C(=NOC(C)(C)C(=O)O)c4csc(N)n4)C3[S+]([O-])C2)cs1 (stereo not drawn) [42 857],8,8,,1,0.5,,
CC(C)(ON=C(C(=O)NC1C(=O)N2C(C(=O)O)=C(COC(=O)c3cccc(NC(=O)CCCN)c3)C[S+]([O-])C12)c1csc(N)n1)C(=O)O (stereo not drawn) [42 687],4,8,,1,2,,
CNCC(=O)Nc1cccc(C(=O)OCC2=C(C(=O)O)N3C(=O)C(NC(=O)C(=NOC(C)(C)C(=O)O)c4csc(N)n4)C3[S+]([O-])C2)c1 (stereo not drawn) [42 583],4,8,,0.5,1,,
Cc1cc(CN)ccc1C(=O)OCC1=C(C(=O)O)N2C(=O)C(NC(=O)C(=NOC3(C(=O)O)CCC3)c3csc(N)n3)C2[S+]([O-])C1 (stereo not drawn) [42 849],2,4,,0.125,0.125,,
